Counter-ions that a name gives are not always drawn.
Columns and labels:
[1] = Excitation and fluorescence wavelengths and signal attenuation versus tissue depth of fluorescing dyes (FIG. 2); assay type: physicochemical
Description: These fluorescing dyes are excited by one wavelength of electromagnetic radiation, and emit a detectable signal at a second wavelength. Looking to FIG. 2, the excitation signal for fluorescein dye is represented at curve 30 which is an excitation signal at less than about 500 nanometers (nm). A resultant fluorescence emission from the excitation at 30 is shown at curve 32, at a wavelength of about 525 nm.
Looking to the indocyanine green dye spectrum, an excitation curve is shown at 34, having a peak excitation wavelength at about 785 nanometers. Correspondingly, the fluorescence emission from excitation at curve 34 is represented at curve 36 with a peak emission wavelength of about 830 nanometers. Directed across FIG. 2 is a curve representing the level of constant signal attenuation or absorption of about 37% resulting from passage of signal through tissue. That curve is represented at 38. Note that if a blood vessel is about one millimeter beneath the surface of skin the system would perform at about 37% of the original intensity of the excitation signal and fluorescence signal for the case of indocyanine green dye indicator. In contrast, a 37% decrease in excitation and emission signal level would result for the fluorescein dye indicator at a tissue thickness of only 0.25 mm. Since blood vessel being targeted is at least 1 mm below skin surface, the attenuation and associated signal loss would be much larger. Therefore, indocyanine green dye is preferred.
Turning again to the indocyanine green dye spectrum, note that the excitation signal 34 for ICG intersects curve 38 at a depth allowing for readily reaching blood vessels, for example within the pinna of the ear. Accordingly, indocyanine green is compatible with use as a circulatory tracking agent when detecting through skin, and indocyanine green was the indicator elected for subsequent study.

[2] = 1 day
Description: However, due to the ratiometric form of Eq. 7 in the present invention, the terms D and CCF cancel out. Also, the units of measure for the fluorescence signal level (e.g., millivolts-seconds) cancel out. […] However, the amount of the indicator injected needs to be sufficiently large so that the much smaller indicator/dilution curves associated with one or two right-to-left shunts can be adequately resolved and their corresponding areas can be accurately calculated. In a preferred embodiment of the present invention involving the use of Indocyanine Green (ICG) dye (supplied, for example, by Akorn, Inc., 2500 Millbrook Drive, Buffalo Grove, Ill. 60089) as the indicator, the preferred amount of ICG dye injected is 2.0 ml at an ICG dye concentration of 2.5 milligram/ml which is equivalent to an injected ICG dose of 5.0 milligrams. The chemical name for Indocyanine Green is 1H-benz(e)indolium, 2-[7-[1,3-dihydro-1,1-dimethyl-3-(4-sulfobutyl)-2H-benz[e]indo-2-ylidene]-1,3,5-heptatrienyl]-1,1-dimethyl-3-(4-sulfobutyl)-hydroxide, inner salt, sodium, or 2-[7-[1,1-dimethyl-3-(4-sulfobutyl)benz[e]indolin-2-ylidene]-1,3,5-heptatrienyl]-1,1-dimethyl-3-(4-sulfobutyl)-1H-benz[e]indolium hydroxide, inner salt, sodium salt. A typical right-to-left shunt test procedure might involve a total of 3 to 5 tests which represents a total injected dose of 15 to 25 milligrams. […]

[3] = manufacturers specified guideline; cited from earlier work

O=C1OC2(c3ccc(O)cc3Oc3cc(O)ccc32)c2ccccc21 [fluorescein]
excitation wavelength ([1]; FIG. 2): less than 500 nanometers | fluorescence emission wavelength ([1]; FIG. 2): about 525 nm | tissue thickness (depth of blood vessel beneath skin) at constant signal attenuation of about 37% ([1]; excitation and fluorescence signal, FIG. 2 curve 38): 0.25 mm

CC1(C)C(/C=C/C=C/C=C/C=C2\N(CCCCS(=O)(=O)O)c3ccc4ccccc4c3C2(C)C)=[N+](CCCCS(=O)(=O)[O-])c2ccc3ccccc3c21 [ICG, 1H-benz(e)indolium, 2-[7-[1,3-dihydro-1,1-dimethyl-3-(4-sulfobutyl)-2H-benz[e]indo-2-ylidene]-1,3,5-heptatrienyl]-1,1-dimethyl-3-(4-sulfobutyl)-hydroxide, inner salt, sodium]
excitation wavelength ([1]; FIG. 2): about 785 nanometers | recommended ICG dose for a human subject [2]: about 127 milligrams | recommended maximum ICG dose per day [3]: ≤ 2 milligrams per kilogram of body weight
